Laboratory results published in patent publication US9212163B2, “Pesticidal compositions and processes related thereto” (Dow AgroSciences LLC, priority 2012, dated 2015).

System: Beet Armyworm (BAW) (Spodoptera exigua)
Experiment: Bioassay on Beet Armyworm (BAW), 128-well diet tray assay
Type: in vivo
Settings: Table 3: Assay Results Part 1
Procedure: Certain molecules disclosed in this document were tested against BAW, CEW and CL using procedures described in the following examples. In the reporting of the results, the “BAW & CEW & CL Rating Table” was used (See Table Section).
Bioassays on BAW (Spodoptera exigua)
Bioassays on BAW were conducted using a 128-well diet tray assay. One to five second instar BAW larvae were placed in each well (3 mL) of the diet tray that had been previously filled with 1 mL of artificial diet to which 50 μg/cm^2 of the test compound (dissolved in 50 μL of 90:10 acetone-water mixture) had been applied (to each of eight wells) and then allowed to dry. Trays were covered with a clear self-adhesive cover, and held at 25° C., 14:10 light-dark for five to seven days. Percent mortality was recorded for the larvae in each well; activity in the eight wells was then averaged. The results are indicated in the tables entitled “Table 3: Assay Results Part 1” and “Table 4: Assay Results Part 2” (See Table Section).

| Structure (SMILES) | BAW Rating |
| --- | --- |
| CC(=O)NCc1ccc(/C=C/C(c2cc(Cl)cc(Cl)c2)C(F)(F)F)cc1Cl (stereo not shown) [CC7, (E)-N-(2-Chloro-4-(3-(3,5-dichlorophenyl)-4,4,4-trifluorobut-1-en-1-yl)benzyl)acetamide] | A (50-100) |
| O=C(NCc1ccc(/C=C/C(c2cc(Cl)cc(Cl)c2)C(F)(F)F)cc1Cl)C1CC1 (stereo not shown) [CC8] | A (50-100) |
| O=C(CC(F)(F)F)NCc1ccc(/C=C/C(c2cc(Cl)cc(Cl)c2)C(F)(F)F)cc1Cl (stereo not shown) [CC9] | A (50-100) |
| O=C(NCc1ccc(/C=C/C(c2cc(Cl)c(Cl)c(Cl)c2)C(F)(F)F)cc1Cl)C1CC1 (stereo not shown) [CC11] | A (50-100) |
| O=C(Cc1ccc(Cl)nc1)NCc1ccc(/C=C/C(c2cc(Cl)c(Cl)c(Cl)c2)C(F)(F)F)cc1Cl (stereo not shown) [CC14] | A (50-100) |
| O=C(NCc1ccc(/C=C/C(c2cc(Cl)c(F)c(Cl)c2)C(F)(F)F)cc1Cl)C1CC1 (stereo not shown) [CC15] | A (50-100) |
| O=C(NCc1ccc(/C=C/C(c2ccc(Cl)c(Cl)c2)C(F)(F)F)cc1Cl)C1CC1 (stereo not shown) [CC17] | A (50-100) |
| O=C(CC(F)(F)F)NCc1ccc(/C=C/C(c2ccc(Cl)c(Cl)c2)C(F)(F)F)cc1Cl (stereo not shown) [CC18] | A (50-100) |
| CSCCC(=O)NCc1ccc(/C=C/C(c2cc(Cl)c(Cl)c(Cl)c2)C(F)(F)F)cc1Cl (stereo not shown) [CC19] | A (50-100) |
| FC(F)(F)C(/C=C/c1ccc(CNC(=S)C2CC2)c(Cl)c1)c1cc(Cl)c(Cl)c(Cl)c1 (stereo not shown) [CC20] | A (50-100) |
| O=C(NCc1ccc(/C=C/C(c2cc(Cl)cc(Cl)c2)C(F)(F)F)cc1C(F)(F)F)C1CC1 (stereo not shown) [CC21] | A (50-100) |
| O=C(NCc1ccc(/C=C/C(c2cc(Cl)c(Cl)c(Cl)c2)C(F)(F)F)cc1C(F)(F)F)C1CC1 (stereo not shown) [CC22] | A (50-100) |
| O=C(NCc1ccc(/C=C/C(c2cc(Cl)c(Cl)c(Cl)c2)C(F)(F)F)cc1C(F)(F)F)c1cccnc1 (stereo not shown) [CC23] | A (50-100) |
| O=C(CC(F)(F)F)NCc1ccc(/C=C/C(c2cc(Cl)c(Cl)c(Cl)c2)C(F)(F)F)cc1C(F)(F)F (stereo not shown) [CC24] | A (50-100) |
| O=C(CC(F)(F)F)NCc1ccc(/C=C/C(c2cc(Cl)c(Cl)c(Cl)c2)C(F)(F)F)cc1Br (stereo not shown) [CC25] | A (50-100) |
| O=C(NCc1ccc(/C=C/C(c2cc(Cl)c(Cl)c(Cl)c2)C(F)(F)F)cc1Br)C1CC1 (stereo not shown) [CC26] | A (50-100) |
| O=C(CC(F)(F)F)NCc1ccc(/C=C/C(c2cc(Cl)c(Cl)c(Cl)c2)C(F)(F)F)cc1F (stereo not shown) [CC27] | A (50-100) |
| O=C(NCc1ccc(/C=C/C(c2cc(Cl)c(Cl)c(Cl)c2)C(F)(F)F)cc1F)C1CC1 (stereo not shown) [CC28] | A (50-100) |
| O=C(C1CC1)N(Cc1ccccn1)Cc1ccc(/C=C/C(c2cc(Cl)c(Cl)c(Cl)c2)C(F)(F)F)cc1C(F)(F)F (stereo not shown) [CC29, (E)-N-(Pyridin-2-ylmethyl)-N-(4-(4,4,4-trifluoro-3-(3,4,5-trichlorophenyl)but-1-enyl)-2-(trifluoromethyl)benzyl)cyclopropanecarboxamide] | A (50-100) |
| CS(=O)(=O)CCC(=O)NCc1ccc(/C=C/C(c2cc(Cl)c(Cl)c(Cl)c2)C(F)(F)F)cc1Cl (stereo not shown) [CC30, (E)-N-(2-Chloro-4-(4,4,4-trifluoro-3-(3,4,5-trichlorophenyl)but-1-en-1-yl)benzyl)-3-(methylsulfonyl)propanamide] | A (50-100) |
| CCNC(=O)NCc1ccc(/C=C/C(c2cc(Cl)cc(Cl)c2)C(F)(F)F)cc1Cl (stereo not shown) [CC31, (E)-1-(2-Chloro-4-(3-(3,5-dichlorophenyl)-4,4,4-trifluorobut-1-en-1-yl)benzyl)-3-ethylurea] | B (More than 0-Less than 50) |
| CCNC(=O)NCc1ccc(/C=C/C(c2cc(Cl)c(Cl)c(Cl)c2)C(F)(F)F)cc1C(F)(F)F (stereo not shown) [CC32] | A (50-100) |
| CCNC(=O)NCc1ccc(/C=C/C(c2cc(Cl)c(Cl)c(Cl)c2)C(F)(F)F)cc1Br (stereo not shown) [CC33] | A (50-100) |
| O=C(NCc1ccc(/C=C/C(c2cc(Cl)c(Cl)c(Cl)c2)C(F)(F)F)cc1Cl)N1CCOCC1 (stereo not shown) [CC34] | A (50-100) |
| CN(C)C(=O)NCc1ccc(/C=C/C(c2cc(Cl)c(Cl)c(Cl)c2)C(F)(F)F)cc1Cl (stereo not shown) [CC36, (E)-3-(2-Chloro-4-(4,4,4-trifluoro-3-(3,4,5-trichlorophenyl)but-1-en-1-yl)benzyl)-1,1-dimethylurea] | A (50-100) |
| CCNC(=S)NCc1ccc(/C=C/C(c2cc(Cl)c(Cl)c(Cl)c2)C(F)(F)F)cc1Cl (stereo not shown) [CC37, (E)-1-(2-Chloro-4-(4,4,4-trifluoro-3-(3,4,5-trichlorophenyl)but-1-en-1-yl)benzyl)-3-ethylthiourea] | A (50-100) |

| Structure (SMILES) | BAW Rating |
| --- | --- |
| C=CCNC(=S)NCc1ccc(/C=C/C(c2cc(Cl)c(Cl)c(Cl)c2)C(F)(F)F)cc1Cl (stereo not shown) [CC38] | A (50-100) |
| FC(F)(F)C(/C=C/c1ccc(CNc2ccccn2)c(Cl)c1)c1cc(Cl)c(Cl)c(Cl)c1 (stereo not shown) [CC43, (E)-N-(2-Chloro-4-(4,4,4-trifluoro-3-(3,4,5-trichlorophenyl)but-1-en-1-yl)benzyl)pyridin-2-amine] | A (50-100) |
| O=C(CC(F)(F)F)NCc1ncc(/C=C/C(c2cc(Cl)c(Cl)c(Cl)c2)C(F)(F)F)cc1Cl (stereo not shown) [CC44, (E)-N-((3-Chloro-5-(4,4,4-trifluoro-3-(3,4,5-trichlorophenyl)-but-1-en-1-yl)pyridin-2-yl)methyl)-3,3,3-trifluoropropanamide] | A (50-100) |
| O=C(NCc1ncc(/C=C/C(c2cc(Cl)c(Cl)c(Cl)c2)C(F)(F)F)cc1Cl)C1CC1 (stereo not shown) [CC45] | A (50-100) |
| O=C(NNc1ccc(/C=C/C(c2cc(Cl)c(Cl)c(Cl)c2)C(F)(F)F)cc1)C1CC1 (stereo not shown) [CC50, (E)-N′-(4-(4,4,4-Trifluoro-3-(3,4,5-trichlorophenyl)but-1-en-1-yl)phenyl)cyclopropanecarbohydrazide] | A (50-100) |
| O=C(CC(F)(F)F)NNc1ccc(/C=C/C(c2cc(Cl)c(Cl)c(Cl)c2)C(F)(F)F)cc1 (stereo not shown) [CC51] | A (50-100) |
| O=C(NOc1ccc(/C=C/C(c2cc(Cl)c(Cl)c(Cl)c2)C(F)(F)F)cc1)C1CC1 (stereo not shown) [CC52, (E)-N-(4-(4,4,4-Trifluoro-3-(3,4,5-trichlorophenyl)but-1-en-1-yl)phenoxy)cyclopropanecarboxamide] | A (50-100) |
| O=C(CC(F)(F)F)NCc1ccc(/C=C\C(c2cc(Cl)c(Cl)c(Cl)c2)C(F)(F)F)cc1 (stereo not shown) [CC54, (Z)-3,3,3-Trifluoro-N-(4-(4,4,4-trifluoro-3-(3,4,5-trichlorophenyl)but-1-en-1-yl)benzyl)propanamide] | A (50-100) |
| FC(F)(F)C(/C=C/c1ccc(-n2cncn2)cc1)c1cc(Cl)cc(Cl)c1 (stereo not shown) [DC1, (E)-1-(4-(3-(3,5-Dichlorophenyl)-4,4,4-trifluorobut-1-en-1-yl)phenyl)-1H-1,2,4-triazole] | A (50-100) |
| FC(F)(F)C(/C=C/c1ccc(-n2cncn2)cc1)c1ccccc1 (stereo not shown) [DC3] | B (More than 0-Less than 50) |
| FC(F)(F)C(/C=C/c1ccc(-n2cncn2)cc1)c1ccc(Cl)cc1 (stereo not shown) [DC4] | A (50-100) |
| Fc1ccc(C(/C=C/c2ccc(-n3cncn3)cc2)C(F)(F)F)cc1 (stereo not shown) [DC7] | A (50-100) |
| Fc1cc(F)cc(C(/C=C/c2ccc(-n3cncn3)cc2)C(F)(F)F)c1 (stereo not shown) [DC8] | A (50-100) |
| Cc1cc(C)cc(C(/C=C/c2ccc(-n3cncn3)cc2)C(F)(F)F)c1 (stereo not shown) [DC11] | A (50-100) |
| FC(F)(F)C(/C=C/c1ccc(-n2cncn2)cc1)c1ccc(Cl)c(Cl)c1 (stereo not shown) [DC12] | A (50-100) |
| FC(F)(F)c1cc(C(/C=C/c2ccc(-n3cncn3)cc2)C(F)(F)F)cc(C(F)(F)F)c1 (stereo not shown) [DC16] | A (50-100) |
| COc1c(Cl)cc(C(/C=C/c2ccc(-n3cncn3)cc2)C(F)(F)F)cc1Cl (stereo not shown) [DC20] | A (50-100) |
| N#Cc1cc(/C=C/C(c2cc(Cl)cc(C(F)(F)F)c2)C(F)(F)F)ccc1-n1cncn1 (stereo not shown) [DC33] | A (50-100) |
| COc1c(Cl)cc(C(/C=C/c2ccc(-n3cncn3)c(C#N)c2)C(F)(F)F)cc1Cl (stereo not shown) [DC34] | A (50-100) |
| N#Cc1cc(/C=C/C(c2cc(Cl)c(F)c(Cl)c2)C(F)(F)F)ccc1-n1cncn1 (stereo not shown) [DC35] | A (50-100) |
| N#Cc1cc(/C=C/C(c2cc(Cl)cc(Cl)c2)C(F)(F)F)ccc1-n1cnc([N+](=O)[O-])n1 (stereo not shown) [DC37] | A (50-100) |
| N#Cc1cc(/C=C/C(c2cc(Cl)cc(Cl)c2)C(F)(F)F)ccc1-n1cnc(N)n1 (stereo not shown) [DC38] | A (50-100) |
| CC(=O)Nc1ncn(-c2ccc(/C=C/C(c3cc(Cl)cc(Cl)c3)C(F)(F)F)cc2C#N)n1 (stereo not shown) [DC39] | A (50-100) |
| N#Cc1cc(/C=C/C(c2cc(Cl)c(Cl)c(Cl)c2)C(F)(F)F)ccc1-n1cnc([N+](=O)[O-])n1 (stereo not shown) [DC40, (E)-2-(3-Nitro-1H-1,2,4-triazol-1-yl)-5-(4,4,4-trifluoro-3-(3,4,5-trichlorophenyl)but-1-en-1-yl)benzonitrile] | A (50-100) |
| N#Cc1cc(/C=C/C(c2cc(Cl)c(Cl)c(Cl)c2)C(F)(F)F)ccc1-n1cnc(N)n1 (stereo not shown) [DC41, (E)-2-(3-Amino-1H-1,2,4-triazol-1-yl)-5-(4,4,4-trifluoro-3-(3,4,5-trichlorophenyl)but-1-en-1-yl)benzonitrile] | A (50-100) |
| N#Cc1cc(/C=C/C(c2cc(Cl)c(Cl)c(Cl)c2)C(F)(F)F)ccc1-n1cnc(N(C(=O)C2CC2)C(=O)C2CC2)n1 (stereo not shown) [DC42, (E)-N-(1-(2-Cyano-4-(4,4,4-trifluoro-3-(3,4,5-trichlorophenyl)but-1-en-1-yl)phenyl)-1H-1,2,4-triazol-3-yl)-N-(cyclopropanecarbonyl)cyclopropanecarboxamide] | A (50-100) |
